Reference: publication PMC10390107, “The 4-(dimethylaminoalkyl)piperazine inhibitors of α-glucosidase: allosteric enzyme inhibition and identification of interacting chemical groups” (Turkish Journal of Chemistry, 2022)
Entries after “also recorded” stand apart in the source; their conditions may differ. Where two headings read alike, the source gives them in different places.

Molecular target: T1, α-glucosidase (EC 3.2.1.20) from Saccharomyces cerevisiae (Saccharomyces cerevisiae, UniProt P53341)
T1 construct: purchased Sigma Chemical Co., St. Louis, USA
T1 sequence (P53341 whole entry): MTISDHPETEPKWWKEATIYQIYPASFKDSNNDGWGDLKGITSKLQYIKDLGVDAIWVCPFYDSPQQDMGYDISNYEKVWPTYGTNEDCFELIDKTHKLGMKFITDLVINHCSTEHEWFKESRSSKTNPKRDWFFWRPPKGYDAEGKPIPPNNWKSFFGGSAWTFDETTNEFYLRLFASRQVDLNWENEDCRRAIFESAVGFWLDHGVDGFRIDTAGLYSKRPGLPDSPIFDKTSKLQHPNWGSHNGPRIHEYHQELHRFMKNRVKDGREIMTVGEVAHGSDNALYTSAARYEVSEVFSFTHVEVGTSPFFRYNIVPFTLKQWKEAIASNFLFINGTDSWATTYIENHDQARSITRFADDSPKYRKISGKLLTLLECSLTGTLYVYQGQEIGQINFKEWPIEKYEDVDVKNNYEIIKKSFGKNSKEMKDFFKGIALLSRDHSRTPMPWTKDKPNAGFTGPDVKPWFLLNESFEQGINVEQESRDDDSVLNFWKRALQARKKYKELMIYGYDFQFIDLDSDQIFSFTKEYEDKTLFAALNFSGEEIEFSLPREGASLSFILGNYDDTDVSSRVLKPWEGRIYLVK
Test: biochemical
Format: biochemical
Settings: mean of quadruplet experiments ± SEM, from Dixon plots, pH 6.8, 37 °C
Experimental: All in vitro α-glucosidase inhibition assays were performed in a 96-well microplate format. The α-glucosidase inhibition assay reported elsewhere was customized to suit the experimental needs of the current work. The assay mixture contained 50 mM sodium phosphate buffer (pH 6.8), 20 mU of α-glucosidase (EC 3.2.1.20) from Saccharomyces cerevisiae (Sigma Chemical Co., St. Louis, USA), and 1.0 mM of p-nitrophenyl-α-D-glucopyranoside (PNP-G) substrate. All target compounds were dissolved in DMSO with the assay mixture containing DMSO at a final concentration of 3%. […] The reaction was continuously monitored at 400 nm in SpectraMax Plus 384® microplate reader (Molecular Devices, CA, USA). […] All assays were performed as four individual experiments out of which the values of mean and standard error of mean (SEM) were calculated.
The enzyme kinetics assay procedure was essentially the same as mentioned above except that it was specifically designed for the kinetic work. […] The type of inhibition was calculated from the Lineweaver-Burk plots which was further confirmed by the Dixon plot using Grafit 7.0.3 software (Erithacus Software Ltd., Staines, UK). The Ki values were also calculated from their respective Dixon plots. All kinetic experiments were conducted in quadruplicate from which mean Ki values and the SEM were calculated.

Row | Structure (SMILES) | Ki (read-out: Ki) [µM] | Ki
1 | CN(C)CCCN1CCN(C(=S)SCCCC(=O)c2ccc(Cl)cc2)CC1 [PC1] | 5.75 ± 0.2 | –
2 | CN(C)CCCN1CCN(C(=S)SCCC(=O)c2ccccc2)CC1 [PC9] | – | no inhibitory activity; also recorded: Inactive
